From patent US8828989B2, “Oxy-cyclohexyl-4H,6H-5-oxa-2,3,10b-triaza-benzo[E]azulenes as V1A antagonists” (Hoffmann-La Roche Inc., priority 2011, dated 2014)

Target: T1, human V1a receptor (Homo sapiens, UniProt P37288)
T1 construct: expressed in transfected cells; host or cells: HEK293 cells, transiently transfected (membrane preparation)
Experiment: human V1a receptor binding studies (3H-Vasopressin SPA, membranes of transfected HEK293 cells)
Details: 3H-Vasopressin displacement, HEK293 cell membranes, Ki by Cheng-Prussoff equation; read-out: pKi hV1a (converted)
Protocol: The human V1a receptor was cloned by RT-PCR from total human liver RNA. The coding sequence was subcloned in an expression vector after sequencing to confirm the identity of the amplified sequence. […] Cell membranes were prepared from HEK293 cells transiently transfected with the expression vector and grown in 20 liter fermenters with the following protocol.
50 g of cells are resuspended in 30 ml freshly prepared ice cold Lysis buffer (50 mM HEPES, 1 mM EDTA, 10 mM MgCl2 adjusted to pH=7.4+complete cocktail of protease inhibitor (Roche Diagnostics)). Homogenized with Polytron for 1 min and sonicated on ice for 2×2 minutes at 80% intensity (Vibracell sonicator). The preparation is centrifuged 20 min at 500 g at 4° C., the pellet is discarded and the supernatant centrifuged 1 hour at 43,000 g at 4° C. (19,000 rpm). The pellet is resuspended in 12.5 ml Lysis buffer+12.5 ml Sucrose 20% and homogenized using a Polytron for 1-2 min. The protein concentration is determined by the Bradford method and aliquots are stored at −80° C. until use. For binding studies 60 mg Yttrium silicate SPA beads (Amersham) are mixed with an aliquot of membrane in binding buffer (50 mM Tris, 120 mM NaCl, 5 mM KCl, 2 mM CaCl2, 10 mM MgCl2) for 15 minutes with mixing. 50 μl of bead/membrane mixture is then added to each well of a 96 well plate, followed by 50 μl of 4 nM 3H-Vasopressin (American Radiolabeled Chemicals). For total binding measurement 100 μl of binding buffer are added to the respective wells, for non-specific binding 100 μl of […] cold vasopressin and for compound testing 100 μl of a serial dilution of each compound in 2% DMSO. The plate is incubated 1 h at room temperature, centrifuged 1 min at 1000 g and counted on a Packard Top-Count. Non-specific binding counts are subtracted from each well and data is normalized to the maximum specific binding set at 100%. To calculate an IC 50 the curve is fitted using a non-linear regression model (XLfit) and the Ki is calculated using the Cheng-Prussoff equation.

T1 sequence (P37288 whole entry): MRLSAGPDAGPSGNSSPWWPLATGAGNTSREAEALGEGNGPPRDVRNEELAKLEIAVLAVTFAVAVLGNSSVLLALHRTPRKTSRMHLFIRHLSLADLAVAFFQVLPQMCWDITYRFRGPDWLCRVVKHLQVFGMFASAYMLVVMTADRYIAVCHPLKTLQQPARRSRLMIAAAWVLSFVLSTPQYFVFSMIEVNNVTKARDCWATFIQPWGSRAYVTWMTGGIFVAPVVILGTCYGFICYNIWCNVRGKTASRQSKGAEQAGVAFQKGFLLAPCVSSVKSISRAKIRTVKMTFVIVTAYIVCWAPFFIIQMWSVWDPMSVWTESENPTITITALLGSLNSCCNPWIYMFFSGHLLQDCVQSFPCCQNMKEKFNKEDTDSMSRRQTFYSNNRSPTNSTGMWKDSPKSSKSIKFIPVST

Ki	Structure (SMILES)
0.407 nM	Clc1ccc2c(c1)COCc1nnc([C@H]3CC[C@H](OC4CCCC4)CC3)n1-2 [Example 3, trans-8-Chloro-1-(4-cyclopentyloxy-cyclohexyl)-4H,6H-5-oxa-2,3,10b-triaza-benzo[e]azulene]
19.1 nM	CC(C)O[C@H]1CC[C@H](c2nnc3n2-c2ccc(Cl)cc2COC3)CC1 [Example 1, trans-8-Chloro-1-(4-isopropoxy-cyclohexyl)-4H,6H-5-oxa-2,3,10b-triaza-benzo[e]azulene]
2.34 nM	Clc1ccc2c(c1)COCc1nnc([C@H]3CC[C@H](Oc4ccccn4)CC3)n1-2 [Example 5, trans-8-Chloro-1-[4-(pyridin-2-yloxy)-cyclohexyl]-4H,6H-5-oxa-2,3,10b-triaza-benzo[e]azulene]

The next lines start with the compound.

Structure (SMILES)	Ki
Clc1ccc2c(c1)COCc1nnc([C@H]3CC[C@H](Oc4ccccc4)CC3)n1-2 [Example 4, trans-8-Chloro-1-(4-phenoxy-cyclohexyl)-4H,6H-5-oxa-2,3,10b-triaza-benzo[e]azulene]	1.32 nM
Clc1ccc2c(c1)COCc1nnc([C@H]3CC[C@H](Oc4cnccn4)CC3)n1-2 [Example 6, trans-8-Chloro-1-[4-(pyrazin-2-yloxy)-cyclohexyl]-4H,6H-5-oxa-2,3,10b-triaza-benzo[e]azulene]	26.9 nM
CCC(C)O[C@H]1CC[C@H](c2nnc3n2-c2ccc(Cl)cc2COC3)CC1 (stereo partly drawn) [Example 2, trans-1-(4-sec-Butoxy-cyclohexyl)-8-chloro-4H,6H-5-oxa-2,3,10b-triaza-benzo[e]azulene]	4.37 nM
